Experimental findings from EP0777471B1, “INHIBITION OF LEUKOTRIENE BIOSYNTHESIS WITH UREA DERIVATIVES” (MINNESOTA MINING AND MANUFACTURING COMPANY, priority 1994, dated 1996) are described below.

Assay [1] concerns production of Leukotriene B4. Kind of assay: Rat ex vivo Leukotriene B4 inhibition (oral dosing, blood challenged with A23187). In kind it is in vivo, Rats. The following applies: 50 mg/Kg, two hours post dose. As for the experimental part:
The test method described below measures the ability of a compound when administered orally to rats to inhibit the production of Leukotriene B4 in their blood which is drawn and challenged.
Rats (CD, male, non-fasted, 250 g) are lightly anesthetized with carbon dioxide and an approximately 0.75 mL sample of whole blood is obtained via cardiac puncture. The sample is dispensed into 12 X 75 mm polypropylene tubes containing 8-10 µL of 10,000 units/mL heparin, mixed and then maintained on ice. The rats are allowed to recover approximately one hour then dosed orally with compound dissolved in PEG 400 at a 5 mL/Kg volume. Five (5) rats are utilized per group. Two (2) hours post dose the rats are again anesthetized with carbon dioxide and the blood sampled again via cardiac puncture.
Duplicate 200 µL portions of blood are added to 1.0 mL polypropylene tubes. A 10 µL portion of 1mM A23187 Calcium Ionophore in dimethyl sulfoxide/Tris buffer is added to each tube. The tubes are gently vortexed then incubated in a 37°C water bath for 30 minutes. The tubes are then centrifuged at 4000 rpm for 10 minutes. 50 µL portions of plasma are transferred to 1.0 mL tubes containing 200 µL of methanol. The tubes are vortexed then placed in the freezer overnight.
The tubes are removed from the freezer then centrifuged at 4000 rpm for 10 minutes. […] portions of the methanol/plasma supernatant and 10 µL methanol dilutions of LTB4 standard curve are transferred to 96 well v-bottom microtiter plates. The plates are vacuum dried at 40°C. A 40 µL portion of LTB4 radioimmunoassay buffer is added to each well. The plate is bath sonicated for 5 minutes then assayed according to the manufacturer's (Advanced Magnetics; Cambridge, MA) instructions. Percent inhibition values are obtained by comparing the level of LTB4 in the post-dose samples to the level in the pre-dose samples according to the equation below. % Inhibition =((LTB4 pre-dose) - (LTB4 post-dose))/((LTB4 pre-dose))X 100 [formula]

In assay [2] the test system is production of Leukotriene C4 in mouse peritoneal macrophages. The experiment in a line: In vitro mouse peritoneal macrophage Leukotriene C4 inhibition (zymosan-stimulated, LTC4 radioimmunoassay). In kind it is cell-based. The following applies: Zymosan 50 µg/mL. As for the experimental part: The test method described below measures the ability of compounds to inhibit the production of Leukotriene C4 in mouse peritoneal macrophages.
Mice (female, CD-1, weighing 25 g) are euthanized by exposure to carbon dioxide. The peritoneal cavity is exposed by peeling back the abdominal skin. A 5 mL portion of media (M199 containing 1% fetal bovine serum, 100 units/mL of penicillin, 100 µg/mL of streptomycin, 20 units/mL of heparin and no glutamine) is injected into the exposed peritoneal cavity of each mouse. The lavage fluid is removed and pooled to yield approximately1 X 10^6 macrophages/mL. A 2 mL portion of lavage fluid is added to each well of a 24 well sterile multidish and the macrophages are allowed to adhere to the plate for 2 hours at 37°C in a 5% carbon dioxide atmosphere. The media is removed and each well is washed with 2 mL of phosphate buffered saline (PBS). A 1 mL portion of media, without heparin, but containing 5 µCi/mL of 3H-myoinositol is added to each well and the plates are incubated overnight at 37°C in a 5% carbon dioxide atmosphere. The media is removed and the cells are washed twice with 2 mL portions of PBS. A 1 mL portion of Puck's saline formulation A containing 1 mM calcium chloride, 1 mM magnesium chloride and 10 mM lithium chloride is added to each well. (The Puck's formulation is made first as a 10X solution which contains 4 g of potassium chloride, 80 g of sodium chloride and 10 g of glucose per liter. The Puck's saline formulation A is made using 10 mL of the 10X Puck's formulation, 0.47 mL of 7.5% sodium bicarbonate and 2 mL of 1M N-2-hydroxyethylpiperazine-N'-2-ethanesulfonic acid per 100 mL.)
Compounds are dissolved in dimethyl sulfoxide. Compounds are tested at concentrations of 10, 1 and 0.1 µM. Each concentration is tested in duplicate.
A 1 µL portion of compound solution or vehicle (DMSO) is added to each well and the plates are incubated for 15 minutes at 37°C in a 5% carbon dioxide atmosphere. Zymosan is then added to provide a final concentration of 50 µg/mL in each well and the plate is incubated for 1 to 2 hours at 37°C in a 5% carbon dioxide atmosphere.
Following incubation 200 µL portions of media are transferred to 12 X 75 mm tubes. The tubes are either assayed immediately or stored at -20°C until they can be assayed.
The media is assayed for the presence of Leukotriene C4 by radioimmunoassay which is performed according to the manufacturer's (Advanced Magnetics; Cambridge, MA) instructions.

Assay [3] deals with production of Leukotriene B4 (LTB4). The experiment in a line: Dog ex vivo Leukotriene B4 inhibition (oral dosing, blood challenged with calcium ionophore). The following applies: each entry one dog, negative = stimulation of LTB4 production; for inhibition at 5 mg/kg: Canis lupus familiaris, po. Format: in vivo, beagle dogs. As for the experimental part: The test method described below measures the ability of a compound when administered orally to dogs to inhibit the production of Leukotriene B4 (LTB4) in their blood which is drawn and challenged at selected time points.
The test is conducted in beagle dogs (male and female; about 10 Kg). Prior to starting, the neck area of the beagle is shaved to allow easy access to the jugular vein. A 3-4 mL sample of blood is drawn from the jugular vein into a heparinized vacutainer. The dog is then dosed using a tube long enough to reach its stomach. The compound is dissolved in PEG 400 at a concentration such that the appropriate dose can be administered in approximately 5 mL. Immediately after the compound is given, a flush using 5 mL of vehicle is given to rinse the dosing tube. At selected time points following the dose, a 3-4 mL sample of blood is drawn.
The blood samples that have been drawn are challenged as soon as possible. A 0.5 mL portion of blood is aliquoted into 3 tubes (1 mL microtiter tubes). A 1 µL portion of 25 mM calcium ionophore in dimethyl sulfoxide is added to 2 of the tubes. A 1 µL portion of dimethyl sulfoxide is added to the third tube. The tubes are lightly mixed then placed in a 37°C water bath for 30 minutes. The tubes are centrifuged at 11,000 rpm for 3 minutes and the plasma supernatant is transferred to clean tubes. A 50 µL portion of this plasma is added to a I mL microtiter tube containing 200 µL of methanol. The tubes are placed in the freezer at -20°C for at least 1 hour then centrifuged at 2000 rpm for 10 minutes. A 10 µL portion of the methanol supematant is dried under vacuum at ambient temperature and then reconstituted in LTB4 buffer. The amount of LTB4 in the sample is determined by radioimmunoassay performed according to the manufacturer's (Advanced Magnetics; Cambridge, MA) instructions. Percent inhibition values are obtained by comparing the level of LTB4 in the post-dose sample to the level in the pre-dose sample according to the equation below. % Inhibition =((LTB4 predose) - (LTB4 postdose))/((LTB4 predose))X 100 [formula]
A number of the compounds that are useful in the practice of the method of the invention were tested. The results are shown in Table 15 below where each entry represents the results from one dog. A negative number indicates stimulation of LTB4 production. All compounds were tested at a dose of 5 mg/Kg.

Values joined by “and” are separate entries in the source; they are usually repeats but may differ in a detail not shown here. Identical values can stand only once. Like-named read-outs stand apart in the source and are kept apart here. A value given as a limit tells only on which side of the number the result lay.

Consider `CCOC(=O)CCCCCN(O)C(=O)Nc1ccccc1` [Compound 50, 6-(1-hydroxy-3-phenylureido)-1-hexanoic acid ethyl ester], for which the “%I” value in assay [1] was 6%. The IC50 in assay [2] is < 1000 nM.
For the compound `CC(C)N(O)C(=O)Nc1ccc([S+](C)[O-])cc1` (stereo not shown) [Compound 63, 1-Hydroxy-1-(1-methylethyl)-3-[4-(methylsulfinyl)phenyl]urea], the “%I” value in assay [1] stood at 92%. Further, the IC50 in assay [2] turned out to be 4000 nM.
For the compound `O=C(Nc1ccccc1)N(O)C1CCCCCC1` [Compound 51, 1-cycloheptyl-1-hydroxy-3-phenylurea], the “%I” value in assay [1] was 22%. Moreover, the midpoint of inhibition in assay [2], the IC50, lay at 600 nM.
As for `CCCCCCCCN(O)C(=O)Nc1ccccc1` [Compound 52, 1-hydroxy-1-octyl-3-phenylurea], the “%I” value in assay [1] worked out at 9%. Besides, the IC50 in assay [2] is < 100 nM.
`CC(CCN(O)C(=O)Nc1ccccc1)CC(C)(C)C` (stereo not shown) [Compound 49, 1-hydroxy-3-phenyl-1-(3,5,5-trimethylhexyl)urea]: in assay [1], the “%I” value is listed as 13%. Also, the IC50 in assay [2] was < 1000 nM.
On the same counts, the results for `CCCC(CCC)N(O)C(=O)Nc1ccccc1` [Compound 70, 1-Hydroxy-1-(1-propylbutyl)-3-phenylurea] are 0% and < 1000 nM.
On to `CC(C)N(O)C(=O)Nc1ccc(S(C)(=O)=O)cc1` [Compound 62, 1-Hydroxy-1-(1-methylethyl)-3-[4-(methylsulfonyl)phenyl]urea], for which, in assay [1], the “%I” value came out at 18%. This compound also registered an IC50 in assay [2] of 6400 nM.
Turning to `COc1ccc(NC(=O)N(O)C2CCCCCCC2)cc1` [Compound 37, 1-Cyclooctyl-1-hydroxy-3-(4-methoxyphenyl)urea], the “%I” value in assay [1] was determined as 7%. In addition, the IC50 in assay [2] was < 1000 nM.
In the case of `CC(C)N(O)C(=O)Nc1ccc([N+](=O)[O-])cc1` [Compound 30, 1-hydroxy-1-(1-methylethyl)-3-(4-nitrophenyl)urea], the “%I” value in assay [1] is given as 13%. In assay [2], inhibition was half-maximal at 300 nM (IC50).
On the same counts, the results for `CCC(CC)N(O)C(=O)Nc1cccc(Oc2ccccc2)c1` [Compound 77, 1-Hydroxy-1-(1-ethylpropyl)-3-(3-phenoxyphenyl)urea] are 7% and < 100 nM.
With `CCC(CC)N(O)C(=O)Nc1ccccc1Oc1ccccc1` [Compound 76, 1-Hydroxy-1-(1-ethylpropyl)-3-(2-phenoxyphenyl)urea], the “%I” value in assay [1] amounted to 13%. Further, in assay [2], the IC50 was < 100 nM.
As to `CCCC(CC)N(O)C(=O)Nc1ccccc1` (stereo not shown) [Compound 71, 1-Hydroxy-1-(1-ethylbutyl)-3-phenylurea], in assay [1], the “%I” value was found to be 5%. The IC50 in assay [2] was < 1000 nM.
On the same counts, the results for `CCC(CC)N(O)C(=O)N(C)c1ccccc1` [Compound 74, 1-Hydroxy-1-(1-ethylpropyl)-3-methyl-3-phenylurea] are 7% and < 10000 nM.
As to `CCCCCCCCCCCCN(O)C(=O)Nc1ccccc1` [Compound 53, 1-dodecyl-1-hydroxy-3-phenylurea], in assay [1], the “%I” value came out at 1%. In addition, the concentration for half-maximal inhibition (IC50) in assay [2] is < 1000 nM.
On to `CN(O)C(=O)N(C)c1ccccc1` [Compound 75, 1-Hydroxy-1,3-dimethyl-3-phenylurea], for which the “%I” value in assay [1] amounted to 0%. The IC50 in assay [2] is < 10000 nM.
On to `CSc1cccc(NC(=O)N(O)C2CCCCC2)c1` [Compound 32, 1-Cyclohexyl-1-hydroxy-3-[3-(methylthio)phenyl]urea], for which the “%I” value in assay [1] was 28%. For the same compound, the midpoint of inhibition in assay [2], the IC50, lay at 400 nM.
On the same counts, the results for `CCC(CC)N(O)C(=O)Nc1ccc(Cc2ccccc2)cc1` [Compound 78, 1-Hydroxy-1-(1-ethylpropyl)-3-(4-benzylphenyl)urea] are 0% and < 1000 nM.
On the same counts, the results for `O=C(Nc1ccc([N+](=O)[O-])cc1)N(O)C1CCCCCCC1` [Compound 38, 1-Cyclooctyl-1-hydroxy-3-(4-nitrophenyl)urea] are 2% and < 1000 nM.
Regarding `CCC(CC)N(O)C(=O)Nc1ccc(OCc2ccccc2)cc1` [Compound 80, 1-Hydroxy-1-(1-ethylpropyl)-3-(4-benzyloxyphenyl)urea], the IC50 in assay [2] is < 1000 nM.
In the case of `CCC(CC)N(O)C(=O)Nc1cc(C(F)(F)F)cc(C(F)(F)F)c1` [Compound 73, 1-Hydroxy-1-(1-ethylpropyl)-3-(3,5-bis(trifluoromethyl)phenyl)urea], the IC50 in assay [2] was < 1000 nM.
With `CSc1ccc(NC(=O)N(O)C(C)C)cc1` [Compound 15, 1-Hydroxy-1-(1-methylethyl)-3-[4-(methylthio)phenyl]urea], in assay [3] (5 mg/Kg, 1 hour post dose), the “% Inhibition 1 hour” value turned out to be 95%. For the same compound, the “% Inhibition 2 hour” value in assay [3] (5 mg/Kg, 2 hour post dose) was found to be 98%. In addition, the “% Inhibition 4 hour” value in assay [3] (5 mg/Kg, 4 hour post dose) is 98% and 96% and 31%. The “% Inhibition 6 hour” value in assay [3] (5 mg/Kg, 6 hour post dose) is 84% and 14%. In addition, the inhibition at 5 mg/kg worked out at 100% in assay [3] (1 h, 1 hour post dose, read-out: % Inhibition 1 hour) and 99% in assay [3] (2 h, 2 hour post dose, read-out: % Inhibition 2 hour). Besides, the IC50 in assay [2] was < 100 nM.
As to `CN(O)C(=O)Nc1ccc(Oc2ccccc2)cc1` [Compound 14, 1-hydroxy-1-methyl-3-(4-phenoxyphenyl)urea], the IC50 in assay [2] was < 1000 nM.
